Measured values as given in patent US20260285853A1, “COMPOUNDS AND METHODS FOR MODULATING SPLICING” (REMIX THERAPEUTICS INC., priority 2023, published 2026).
pIC50: −log10 of the molar value. Where two headings read alike, the source gives them in different places.

Key:
Assay type in all cases: cell-based
HTT mRNA [1] = assay: Splicing RT-qPCR assay (THP), Table 2A
[2] = tested on: SH-SY5Y (human neuroblastoma) cells; assay: Cell viability, Cell Titer Glo 2.0 assay; conditions: read-out: Viability SHSY5Y.3 GI50
How it was run: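 Viability was read by CellTiter-Glo 2.0 luminescence after a 72-hour compound exposure at 37° C. under 5% CO2. Cells were in IMDM plus 10% FBS containing 0.1% DMSO, and medium-only wells gave the blank.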

HTT mRNA [3] = assay: Gene panel canonical junction qPCR assay, decrease in CJ mRNA, Table 3
How it was run: (§1)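 IC50 denotes the concentration giving 50% decrease in canonical-junction mRNA, fitted by 4-parameter logistic to percentage response derived from ΔΔCt versus housekeeping gene and DMSO control. Cells (A673 or K562) exposed 24 h to 11-point 3-fold serial dilutions from 10 uM top, DMSO ≤0.25%; junction-spanning primer/probe qPCR.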

MYB mRNA [4] = assay: as above
How it was run: as §1

MYB mRNA [5] = assay: Splicing RT-qPCR assay (THP), Table 2A
[6] = Table 2A (THP), AJ mRNA increase, read-out: HTT AJ (increase in alternative junction mRNA, AC50)
[7] = Table 2A (THP), CJ mRNA decrease, read-out: HTT CJ (decrease in canonical junction mRNA, IC50)
[8] = decrease in canonical junction (CJ) mRNA, gene panel qPCR, Table 3
[9] = Table 2A (THP), AJ mRNA increase, read-out: MYB AJ (increase in alternative junction mRNA, AC50)
[10] = Table 2A (THP), CJ mRNA decrease, read-out: MYB CJ (decrease in canonical junction mRNA, IC50)
[11] = Table 2A, THP, HTT alternative junction (AJ) mRNA, read-out: HTT AJ (AC50, increase in alternative junction mRNA)
[12] = Table 2A, THP, HTT canonical junction (CJ) mRNA, read-out: HTT CJ (IC50, decrease in canonical junction mRNA)
[13] = decrease in CJ mRNA levels, canonical junction qPCR, gene panel
[14] = Table 2A, THP, MYB alternative junction (AJ) mRNA, read-out: MYB AJ (AC50, increase in alternative junction mRNA)
[15] = Table 2A, THP, MYB canonical junction (CJ) mRNA, read-out: MYB CJ (IC50, decrease in canonical junction mRNA)

pIC50 (HTT mRNA [1]; [7]) | GI50 [2] [nM] | pIC50 (HTT mRNA [3]; [8]) | pIC50 (MYB mRNA [4]; [8]) | pIC50 (MYB mRNA [5]; [10]) | pIC50 (HTT mRNA [1]; [12]) | pIC50 (HTT mRNA [3]; [13]) | pIC50 (MYB mRNA [4]; [13]) | pIC50 (MYB mRNA [5]; [15]) | Structure (SMILES) | AC50 (HTT mRNA [1]; [6]) [nM] | AC50 (MYB mRNA [5]; [9]) [nM] | AC50 (HTT mRNA [1]; [11]) [nM] | AC50 (MYB mRNA [5]; [14]) [nM]
< 5.00 | > 10000 | < 5.00 | 5.00 to 6.00 | 5.00 to 6.00 | – | – | – | – | CC(=O)NCc1nc(C)cn2cc(NC(=O)c3c(F)cc(N4CCC(NC5CC5)CC4)c4cn(C)nc34)nc12 [Compound 400, N-(8-(acetamido-methyl)-6-methylimidazo [1,2-a]-pyrazin-2-yl)-4-(4-(cyclopropylamino)-piper-idin-1-yl)-6-fluoro-2-meth-yl-2H-indazole-7-carbox-amide 2,2,2-trifluoro-acetate] | > 10000 | 1000 to 10000 | – | –
– | 1000 to 10000 | – | – | – | 6.00 to 7.00 | 6.00 to 7.00 | > 7.00 | > 7.00 | COc1cc2c(N3CCC(NC4CC4)CC3)ccc(C(=O)Nc3cc4cn(C)nc4cc3OC)n2n1 [Compound 632, 4-[4-(cyclopropylamino)-1-piperidyl]-2-methoxy-N-(6-methoxy-2-methyl-indazol-5-yl) pyrazolo[1,5-a]pyridine-7-carboxamide] | – | – | 100 to 1000 | < 100
< 5.00 | 1000 to 10000 | < 5.00 | 6.00 to 7.00 | 6.00 to 7.00 | – | – | – | – | CCNC1CCN(c2cc(O)c(C(=O)Nc3cn4cc(C)nc(C)c4n3)c3nn(C)cc23)CC1 [Compound 332, N-(6,8-dimethylimidazo[1,2-a]pyrazin-2-yl)-4-(4-(ethylamino)piperidin-1-yl)-6-hydroxy-2-methyl-2H-indazole-7-carboxamide 2,2,2-trifluoroacetate] | > 10000 | 100 to 1000 | – | –
– | > 10000 | – | – | – | < 5.00 | < 5.00 | < 5.00 | < 5.00 | COc1cc2nc(C)cn2cc1NC(=O)c1c(F)cc(N2CCC(NC3CC3)CC2)c2cc(C)nn12 [Compound 626, 4-[4-(cyclopropylamino)-1-piperidyl]-6-fluoro-N-(7-methoxy-2-methylimidazo-[1,2-a]pyridin-6-yl)-2-methylpyrazolo-[1,5-a]pyridine-7-carboxamide] | – | – | > 10000 | > 10000
– | < 100 | – | – | – | < 5.00 | < 5.00 | > 7.00 | > 7.00 | COc1nc2c(C(=O)Nc3cc(F)c4nn(C)cc4c3)ccc(N3C[C@H](C)NC4(CC4)C3)c2s1 [Compound 741] | – | – | 1000 to 10000 | < 100
– | 1000 to 10000 | – | – | – | < 5.00 | < 5.00 | < 5.00 | < 5.00 | Cc1cn2cc(NC(=O)c3ccc(N4CCC(NC5CC5)CC4)c4cn(C)nc34)nc2c(CNC2(C)COC2)n1 [Compound 804, 4-[4-(cyclopropylamino)-1-piperidyl]-2-methyl-N-[6-methyl-8-[[(3-methyloxetan-3-yl)amino]methyl]imidazo[1,2-a]pyrazin-2-yl]indazole-7-carboxamide] | – | – | > 10000 | > 10000
6.00 to 7.00 | 100 to 1000 | 6.00 to 7.00 | 6.00 to 7.00 | 6.00 to 7.00 | – | – | – | – | COc1cc2nn(C)cc2cc1NC(=O)c1ccc(N2CCC(NC3CC3)CC2)c2c(C)n(C)nc12 [Compound 485, 4-[4-(cyclopropylamino)-1-piperidyl]-N-(6-methoxy-2-methyl-indazol-5-yl)-2,3-dimethyl-indazole-7-carboxamide] | 100 to 1000 | 100 to 1000 | – | –
– | 1000 to 10000 | – | – | – | < 5.00 | < 5.00 | 5.00 to 6.00 | 5.00 to 6.00 | Cc1cn2cc(NC(=O)c3ccc(N4CCC(NC5CC5)CC4)c4cn(C)nc34)nc2c(CCS(=O)(=O)N(C)C)n1 [Compound 805] | – | – | > 10000 | > 10000
– | 1000 to 10000 | – | – | – | < 5.00 | < 5.00 | 6.00 to 7.00 | 6.00 to 7.00 | Cn1cc2cc(NC(=O)c3ccc(N4CCC(NC5CC5)CC4)c4cn(C)nc34)cc(CNc3cncs3)c2n1 [Compound 882] | – | – | > 10000 | 100 to 1000
